The record followed here is patent US10532065B2, “Bisphosphonic acid derivative and application for same” (NAGASAKI UNIVERSITY, priority 2014, dated 2020).

As usually defined, the IC50 is the concentration needed to halve the response being measured. A high value points to lower potency.

Holding throughout (type): cell-based
One assay has as its system 786-0 cells / γδ T cells. As to the kind of experiment: TNF-α production from γδ T cells stimulated by compound-pretreated 786-0 cells. Particulars: 786-0, Renal cell carcinoma, 4 hr pretreatment, 16 hr with γδ T cells, read-out: TNF-α50. As to the method: (§1) Since the above-mentioned results of Experimental Example confirm that the activity of bisphosphonic acids becomes high by POM esterification in various tumor cells, the TNF-α production induction ability of more number of tumor cells was quantitatively studied. […] Thereto was added a solution (500 μl) of compound 7 obtained by serially diluting 10 mM stock solution 10-fold from 20 μM, or a solution (500 μl) of compound 14 obtained by serially diluting 10 mM stock solution 10-fold from 200 μM, and the cells were suspended well. These conical tubes were stood at 37° C. for 4 hr, and the cells were washed 3 times with 5 ml of culture medium. To these cells was added 500 μl of medium, and the cells were suspended well. […] The cell culture medium was suspended well, and the plate was centrifuged at 1,700 rpm, 4° C. for 2 min and the culture supernatant (150 μl) was taken and placed in another round-bottomed 96 well plate. The plate was frozen at −80° C. overnight, left standing at room temperature for 1 hr, stirred well and 100 μl thereof was subjected to ELISA of TNF-α. The content of TNF-α was calculated from the analytical curve of TNF-α. These were performed in triplicate, and TNF-α50 of bisphosphonic acid POM ester derivative (compound 7) and bisphosphonic acid (compound 14) was calculated and summarized in Table 8.

The next assay relates to PEER cells. As to the kind of experiment: PEER tumor cell growth inhibition (CellTiterGlo). Particulars: T cell acute lymphocytic leukemia, 4 days culture. In general terms: In ATP-based viability assays light output follows the ATP content of the culture.
The subject of the next assay is OST cells / γδ T cells. Nature of the assay: TNF-α production from γδ T cells stimulated by compound-pretreated OST cells. Particulars: Osteosarcoma, 4 hr pretreatment, 16 hr with γδ T cells, read-out: TNF-α50. As to the method:
as §1

The next assay has as its system G-361 cells / γδ T cells. As to the kind of experiment: TNF-α production from γδ T cells stimulated by compound-pretreated G-361 cells. Particulars: G-361, Melanoma, 4 hr pretreatment, 16 hr with γδ T cells, read-out: TNF-α50. As to the method:
as §1

The subject of the next assay is C1R cells / γδ T cells. As to the kind of experiment: TNF-α production from γδ T cells stimulated by compound-pretreated C1R cells. Particulars: B cell lymphoma, 4 hr pretreatment, 16 hr with γδ T cells, read-out: TNF-α50. As to the method:
as §1

A further assay relates to 786-0 cells. Nature of the assay: 786-0 tumor cell growth inhibition (CellTiterGlo). Particulars: 786-0, Renal cell carcinoma, 4 days culture.
In a further assay the test system is U937 cells / γδ T cells. Nature of the assay: TNF-α production from γδ T cells stimulated by compound-pretreated U937 cells. Particulars: U937, Histiocytic lymphoma, 4 hr pretreatment, 16 hr with γδ T cells, read-out: TNF-α50. The protocol: as §1
A further assay relates to EJ-1 cells. Nature of the assay: EJ-1 cell growth inhibition (direct antitumor action, CellTiterGlo). Particulars: for IC50: EJ-1 (bladder cancer) growth inhibition, 4 days culture. In a few lines:
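EJ-1 cells run as in the earlier U937 protocol, with cells recovered by conventional EDTA-trypsin treatment. POM ester derivatives were tested side by side with the parent bisphosphonic acids for direct growth inhibition, read by CellTiterGlo.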

The test system of the next assay is PK1 cells / γδ T cells. Nature of the assay: TNF-α production from γδ T cells stimulated by compound-pretreated PK1 cells. Particulars: PK1, Pancreatic cancer, 4 hr pretreatment, 16 hr with γδ T cells, read-out: TNF-α50. As to the method: as §1
Another assay deals with OST cells. Nature of the assay: OST tumor cell growth inhibition (CellTiterGlo). Particulars: Osteosarcoma, 4 days culture.
For another assay, the system named is PEER cells / γδ T cells. As to the kind of experiment: TNF-α production from γδ T cells stimulated by compound-pretreated PEER cells. Particulars: T cell acute lymphocytic leukemia, 4 hr pretreatment, 16 hr with γδ T cells, read-out: TNF-α50. As to the method:
as §1

Like-named read-outs stand apart in the source and are kept apart here. Some results are limits rather than exact numbers.

For `CC(C)(C)C(=O)OCOP(=O)(OCOC(=O)C(C)(C)C)C(CNc1nccs1)P(=O)(OCOC(=O)C(C)(C)C)OCOC(=O)C(C)(C)C` [Compound 7, tetrakispivaloyloxymethyl 2-(thiazol-2-ylamino) ethylidene-1,1-bisphosphonate], the EC50 stood at 65 nM with 786-0 cells / γδ T cells; 600 nM with OST cells / γδ T cells; 63 nM with G-361 cells / γδ T cells; 530 nM with C1R cells / γδ T cells; 60 nM in the assay with U937 cells / γδ T cells; 450 nM in the assay with PK1 cells / γδ T cells. The EC50 with PEER cells / γδ T cells came out at 83 nM. Moreover, the IC50 in the assay with PEER cells was found to be 23 nM; in the assay with 786-0 cells it was 880 nM; with EJ-1 cells, 26 nM; with OST cells it was 810 nM. Also, the “direct antitumor activity (in words)” value in the assay with EJ-1 cells (EJ-1 growth inhibition) was “particularly high activity”.
For `O=P(O)(O)C(CNc1nccs1)P(=O)(O)O` [Compound 14, 2-(thiazol-2-ylamino)ethylidene-1,1-bisphosphonic Acid, reference compound], the EC50 in the assay with 786-0 cells / γδ T cells (Homo sapiens) is above 100000 nM; in the assay on OST cells / γδ T cells (T-cell) it was above 100000 nM; in the assay with G-361 cells / γδ T cells (Homo sapiens) it was 5100 nM; in the assay with C1R cells / γδ T cells, above 100000 nM; in the assay with U937 cells / γδ T cells (Homo sapiens, U-937), above 100000 nM; with PK1 cells / γδ T cells (PK-1), above 100000 nM. The EC50 in the assay on PEER cells / γδ T cells was above 100000 nM. Moreover, the half-inhibitory concentration (IC50) is 82000 nM with PEER cells (96 h); 25000 nM with 786-0 cells (Homo sapiens, 96 h); 3700 nM with EJ-1 cells (EJ1, 96 h); 66000 nM in the assay on OST cells (96 h).
